In patent publication US9475784B2, “4,6-diarylaminothiazines as BACE1 inhibitors and their use for the reduction of beta-amyloid production” (BRISTOL-MYERS SQUIBB COMPANY, priority 2012, dated 2016) one finds IC50 data, which are given here for 14 molecules.

The structures appear in SMILES notation.

The assay concerns Aβ42 production in H4 cells stably transfected with APP751 containing the Swedish mutation (H4 APP751 SWE clone 8.20). Briefly: Cellular assay for inhibition of Aβ1-42 production (H4 APP751 SWE clone 8.20). It counts as cell-based. The following applies: H4 APP751 SWE clone 8.20 cells, 19 h incubation; Table 5B, 6-heterocyclic thiazine examples. As for the experimental part:
Cellular Assays for Inhibition of Aβ1-40 and Aβ1-42 Production
H4 cells stably transfected with APP751 containing the Swedish mutation (H4 APP751 SWE clone 8.20, developed at BMS) were maintained in log phase through twice weekly passage at a 1:20 split. […] Following incubation for 19 h in 5% CO2 at 37° C., plates were briefly centrifuged (1000 rpm, 5 min). A 10 μl aliquot from each well was transferred to a second assay plate (Costar 3709) for Aβ40 measurements. Antibody cocktails were freshly prepared by dilution into 40 mM Tris-HCl (pH 7.4) with 0.2% BSA and added to assay plates. For Aβ42 measurements, antibodies specific for the Aβ42 neoepitope (565, developed at BMS; conjugated to the Wallac reagent (Perkin Elmer)) and the N-terminal sequence of Aβ peptide (26D6, developed at SIBIA; conjugated to APC (Perkin Elmer)) were mixed and 20 μl of the mixture was added to each well of the incubated cell plate yielding a final concentration of 0.8 ng/well 565 and 75 ng/well 26D6. For the Aβ40 measurements, antibodies specific for the Aβ40 neoepitope (TSD, developed at BMS; conjugated to the Wallac reagent (Perkin Elmer)) and 26D6 as described above were mixed and 20 μl of the mixture was added to the 10 μl aliquots which had been removed previously from the cell plate yielding a final concentration of 1.6 ng/well TSD and 17.5 ng/well 26D6. Assay plates containing antibodies were sealed with aluminum foil and incubated overnight at 4° C. Signal was determined using a Viewlux counter (Perkin Elmer) and IC50 values determined using curve fitting in CurveMaster (Excel Fit based).
In general, IC50 refers to the concentration needed to halve the response being measured. Read a high IC50 as weaker potency. The molecule `Cc1noc(C)c1[C@@H]1C[C@@](C)(c2cc(F)cc(F)c2)N=C(N)S1` [Example 49, (4S,6S)-4-(3,5-difluorophenyl)-6-(3,5-dimethylisoxazol-4-yl)-4-methyl-5,6-dihydro-4H-1,3-thiazin-2-amine] gave an IC50 of 270 nM.

In the case of `Cc1noc(C)c1[C@@H]1C[C@@](C)(c2cc(F)c(F)c(F)c2)N=C(N)S1` [Example 50, (4S,6S)-6-(3,5-dimethylisoxazol-4-yl)-4-methyl-4-(3,4,5-trifluorophenyl)-5,6-dihydro-4H-1,3-thiazin-2-amine], the IC50 is 840 nM.

Turning to `CC[C@@]1(c2ccc(F)cc2F)C[C@@H](c2c(C)noc2C)SC(N)=N1` [Example 51, (4S,6S)-4-(2,4-difluorophenyl)-6-(3,5-dimethylisoxazol-4-yl)-4-ethyl-5,6-dihydro-4H-1,3-thiazin-2-amine], inhibition was half-maximal at 1300 nM (IC50).

As to `Cc1noc(C)c1[C@@H]1C[C@@](C)(c2cc(-c3cnc(S(C)(=O)=O)nc3)c(F)cc2F)N=C(N)S1` [Example 52, (4S,6S)-4-(2,4-difluoro-5-(2-(methylsulfonyl)pyrimidin-5-yl)phenyl)-6-(3,5-dimethylisoxazol-4-yl)-4-methyl-5,6-dihydro-4H-1,3-thiazin-2-amine], the IC50 stood at 820 nM.

`Cc1noc(C)c1[C@@H]1C[C@@](C)(c2cc(-c3cncc(O)c3)c(F)cc2F)N=C(N)S1` [Example 53, 5-(5-((4S,6S)-2-amino-6-(3,5-dimethylisoxazol-4-yl)-4-methyl-5,6-dihydro-4H-1,3-thiazin-4-yl)-2,4-difluorophenyl)pyridin-3-ol] yielded an IC50 of 300 nM.

`COc1ccc(-c2cc([C@]3(C)C[C@@H](c4c(C)noc4C)SC(N)=N3)c(F)cc2F)cn1` [Example 54, (4S,6S)-4-(2,4-difluoro-5-(6-methoxypyridin-3-yl)phenyl)-6-(3,5-dimethylisoxazol-4-yl)-4-methyl-5,6-dihydro-4H-1,3-thiazin-2-amine]: the IC50 was 320 nM.

The molecule `Cc1noc(C)c1[C@@H]1C[C@@](C)(c2cc(-c3cccnc3C#N)c(F)cc2F)N=C(N)S1` [Example 55, 3-(5-((4S,6S)-2-amino-6-(3,5-dimethylisoxazol-4-yl)-4-methyl-5,6-dihydro-4H-1,3-thiazin-4-yl)-2,4-difluorophenyl)picolinonitrile] registered an IC50 of 87 nM.

Regarding `COc1ncccc1-c1cc([C@]2(C)C[C@@H](c3c(C)noc3C)SC(N)=N2)c(F)cc1F` [Example 56, (4S,6S)-4-(2,4-difluoro-5-(2-methoxypyridin-3-yl)phenyl)-6-(3,5-dimethylisoxazol-4-yl)-4-methyl-5,6-dihydro-4H-1,3-thiazin-2-amine], the IC50 amounted to 670 nM.

As to `COc1ncc(-c2cc([C@]3(C)C[C@@H](c4c(C)noc4C)SC(N)=N3)c(F)cc2F)cc1Cl` [Example 57, (4S,6S)-4-(5-(5-chloro-6-methoxypyridin-3-yl)-2,4-difluorophenyl)-6-(3,5-dimethylisoxazol-4-yl)-4-methyl-5,6-dihydro-4H-1,3-thiazin-2-amine], the IC50 turned out to be 380 nM.

Turning to `COc1ncc(-c2cc([C@]3(C)C[C@@H](c4c(C)noc4C)SC(N)=N3)c(F)cc2F)cn1` [Example 58, (4S,6S)-4-(2,4-difluoro-5-(2-methoxypyrimidin-5-yl)phenyl)-6-(3,5-dimethylisoxazol-4-yl)-4-methyl-5,6-dihydro-4H-1,3-thiazin-2-amine], the IC50 worked out at 120 nM.

On to `Cc1noc(C)c1[C@@H]1C[C@@](C)(c2cc(-c3cnccc3C(F)(F)F)c(F)cc2F)N=C(N)S1` [Example 59, (4S,6S)-4-(2,4-difluoro-5-(4-(trifluoromethyl)pyridin-3-yl)phenyl)-6-(3,5-dimethylisoxazol-4-yl)-4-methyl-5,6-dihydro-4H-1,3-thiazin-2-amine], for which the IC50 was found to be 670 nM.

Take `Cn1nccc1[C@@H]1C[C@@](C)(c2ccc(F)cc2F)N=C(N)S1` [Example 60, (4S,6S)-4-(2,4-difluorophenyl)-4-methyl-6-(1-methyl-1H-pyrazol-5-yl)-5,6-dihydro-4H-1,3-thiazin-2-amine]: the IC50 came out at 330 nM.

`Cc1nocc1[C@@H]1C[C@@](C)(c2ccc(F)cc2F)N=C(N)S1` [Example 61, (4S,6S)-4-(2,4-difluorophenyl)-4-methyl-6-(3-methylisoxazol-4-yl)-5,6-dihydro-4H-1,3-thiazin-2-amine] showed an IC50 of 300 nM.

`C[C@@]1(c2ccc(F)cc2F)C[C@@H](c2cncnc2)SC(N)=N1` [Example 62, (4S,6S)-4-(2,4-difluorophenyl)-4-methyl-6-(pyrimidin-5-yl)-5,6-dihydro-4H-1,3-thiazin-2-amine]: the IC50 came to 310 nM.
